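Briefly, cells in 96-well plates were exposed to five compound concentrations for 48 h, and endpoints were estimated by linear interpolation. The concentration for 50% growth inhibition is given as GI50.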 Active and inactive are the calls of the source. Rule as the data show it: active = GI50 up to about 1.1 µM and inactive = higher.
Key:
Assay in all cases: NCI-60 cell line screen, 48 h
Hs-578T = test system: Hs-578T
SK-MEL-2 = test system: SK-MEL-2
K562 = test system: K562
OVCAR-5 = test system: OVCAR-5
EKVX = test system: EKVX
SR = test system: SR
OVCAR-3 = test system: OVCAR-3
SNB-19 = test system: SNB-19
NCI-H226 = test system: NCI-H226
CCRF-CEM = test system: CCRF-CEM
CAKI-1 = test system: CAKI-1
ACHN = test system: ACHN
MDA-N = test system: MDA-N
TK-10 = test system: TK-10
M14 = test system: M14
A498 = test system: A498
OVCAR-8 = test system: OVCAR-8
NCI-H23 = test system: NCI-H23
HOP-92 = test system: HOP-92
SNB-75 = test system: SNB-75

COc1cc(C2c3[nH]c4ccccc4c3[C@@H](Nc3ccc(C#N)cc3)[C@H]3COC(=O)N23)cc(OC)c1O (stereo not given in full)
GI50 (Hs-578T): 0.265 µM (active) | GI50 (SK-MEL-2): 0.356 µM (active) | GI50 (K562): 0.181 µM (active) | GI50 (OVCAR-5): 0.316 µM (active) | GI50 (EKVX): 0.851 µM (active) | GI50 (SR): 0.0113 µM (active) | GI50 (OVCAR-3): 0.441 µM (active) | GI50 (SNB-19): 0.235 µM (active) | GI50 (NCI-H226): 0.19 µM (active) | GI50 (CCRF-CEM): 0.054 µM (active) | GI50 (CAKI-1): 0.213 µM (active) | GI50 (ACHN): 0.155 µM (active) | GI50 (MDA-N): 0.376 µM (active) | GI50 (TK-10): 0.335 µM (active) | GI50 (M14): 0.344 µM (active) | GI50 (A498): 0.0516 µM (active) | GI50 (OVCAR-8): 0.227 µM (active) | GI50 (NCI-H23): 0.238 µM (active) | GI50 (HOP-92): 0.413 µM (active) | GI50 (SNB-75): 0.227 µM (active)

O=C1c2cccnc2-c2nccc3c2c1nc1ccc(Br)cc13
GI50 (Hs-578T): 0.12 µM (active) | GI50 (SK-MEL-2): 0.0726 µM (active) | GI50 (K562): 0.0238 µM (active) | GI50 (OVCAR-5): 0.106 µM (active) | GI50 (EKVX): 0.0948 µM (active) | GI50 (SR): 0.012 µM (active) | GI50 (OVCAR-3): 0.0207 µM (active) | GI50 (SNB-19): 0.136 µM (active) | GI50 (NCI-H226): 0.0199 µM (active) | GI50 (CCRF-CEM): < 0.01 µM (active) | GI50 (CAKI-1): 0.0536 µM (active) | GI50 (ACHN): 0.0263 µM (active) | GI50 (MDA-N): 0.109 µM (active) | GI50 (TK-10): 0.273 µM (active) | GI50 (M14): 0.0243 µM (active) | GI50 (A498): 0.0853 µM (active) | GI50 (OVCAR-8): 0.0662 µM (active) | GI50 (NCI-H23): 0.0313 µM (active) | GI50 (HOP-92): 0.102 µM (active) | GI50 (SNB-75): 0.129 µM (active)

CSc1ncc2c(C#N)c3ccccn3c(=O)c2n1
GI50 (Hs-578T): > 100 µM (inactive) | GI50 (SK-MEL-2): > 100 µM (inactive) | GI50 (K562): > 100 µM (inactive) | GI50 (OVCAR-5): > 100 µM (inactive) | GI50 (EKVX): > 100 µM (inactive) | GI50 (SR): > 100 µM (inactive) | GI50 (OVCAR-3): > 100 µM (inactive) | GI50 (SNB-19): > 100 µM (inactive) | GI50 (NCI-H226): > 100 µM (inactive) | GI50 (CCRF-CEM): > 100 µM (inactive) | GI50 (CAKI-1): > 100 µM (inactive) | GI50 (ACHN): > 100 µM (inactive) | GI50 (MDA-N): > 100 µM (inactive) | GI50 (TK-10): > 100 µM (inactive) | GI50 (M14): > 100 µM (inactive) | GI50 (A498): > 100 µM (inactive) | GI50 (OVCAR-8): > 100 µM (inactive) | GI50 (NCI-H23): > 100 µM (inactive) | GI50 (HOP-92): > 100 µM (inactive) | GI50 (SNB-75): > 100 µM (inactive)

O=C(/C=C/c1ccsc1)c1ccco1
GI50 (Hs-578T): 9.4 µM (inactive) | GI50 (SK-MEL-2): 14.1 µM (inactive) | GI50 (K562): 4.71 µM (inactive) | GI50 (OVCAR-5): 17.1 µM (inactive) | GI50 (EKVX): 16.4 µM (inactive) | GI50 (SR): 2.28 µM (inactive) | GI50 (OVCAR-3): 14 µM (inactive) | GI50 (SNB-19): 15.5 µM (inactive) | GI50 (NCI-H226): 28.1 µM (inactive) | GI50 (CCRF-CEM): 5.86 µM (inactive) | GI50 (CAKI-1): 6.85 µM (inactive) | GI50 (ACHN): 10.8 µM (inactive) | GI50 (MDA-N): 12.1 µM (inactive) | GI50 (TK-10): 20 µM (inactive) | GI50 (M14): 11.2 µM (inactive) | GI50 (A498): 5.41 µM (inactive) | GI50 (OVCAR-8): 11.7 µM (inactive) | GI50 (NCI-H23): 14.2 µM (inactive) | GI50 (HOP-92): 14.9 µM (inactive) | GI50 (SNB-75): 12.8 µM (inactive)
